US9885088B2, “Rapid phenotypic diagnosis of pathogens and drug resistance using transcriptional expression signatures” (priority 2010, dated 2018)
“Also recorded” adds a separate entry of the source.

How the values were obtained:
M. tuberculosis [1] = assay: microbe, parasite or virus in culture; assay type: cell-based
M. tuberculosis [2] = assay type: cell-based

SMILES | Sensitive (S) or Resistant (R) (M. tuberculosis [1]) | increase in minimal inhibitory concentration (MIC) (M. tuberculosis [1]) | increase in the MIC (M. tuberculosis [1]) | minimal inhibitory concentration (MIC) (M. tuberculosis [1]) | expression signature (MSD Z-score) (M. tuberculosis [2]) | expression signature induction upon exposure (M. tuberculosis [2]) | transcriptional response (M. tuberculosis [2]) | transcriptional response / expression signature (M. tuberculosis [2])
NNC(=O)c1ccncc1 [Isoniazid] | S and R | > 100 fold | 8 fold | > 6.4 µg/mL | resistant signature | no expression signature induction; also recorded: clearly shows induction of an expression signature | failed to elicit a transcriptional response | responds in a susceptible manner; also recorded: susceptible signature
[H]/N=C(/N)N[C@H]1[C@H](O)[C@@H](O)[C@H](O[C@@H]2O[C@@H](C)[C@](O)(C=O)[C@H]2O[C@@H]2O[C@@H](CO)[C@H](O)[C@@H](O)[C@@H]2NC)[C@@H](N/C(N)=N\[H])[C@@H]1O [Streptomycin] | S and R | – | – | – | – | – | – | –
